Here are results for four compounds from patent US11040223B2, “Compositions and methods related to xCT peptides” (AGILVAX, INC., priority 2015, dated 2021).

In data set [1] the test system is TUBO cells. Kind of data set: MTT in vitro cytotoxicity on TUBO cells. Type of data set: cell-based, mouse. The settings on record: 72 hours. The protocol: (§1) A MTT test was performed on TUBO cells and tumorspheres that had either been treated or not with scalar doses of xCT inhibitor SASP. […] On the contrary, xCT overexpression increases colony generating ability, as confirmed by the higher number of colonies generated in soft agar by NIH/3T3 and HEK-293 cells transfected with xCT when compared with the corresponding cells transfected with empty plasmids.
(§2) Twenty-four hours after TUBO cells and tumorspheres seeding in 96-well plates, scalar doses of doxorubicin or sulfasalazine (SASP; Sigma-Aldrich) were added and incubated at 37° C. for 72 hours. Cytotoxicity was evaluated with MTT using the Cell Proliferation Kit I (Roche Diagnostics).

Data set [2] relates to TUBO-derived tumorspheres. The data set can be described thus: MTT in vitro cytotoxicity on tumorspheres. Type of data set: cell-based. The settings on record: Mus musculus, 72 hours, read-out: IC50, tumorsphere viability (MTT). The protocol:
as §1, §2

For data set [3], the system named is tumorspheres. The data set can be described thus: Tumorsphere generation after SASP or xCT siRNAs. Type of data set: cell-based, mouse. The settings on record: spheres counted 5 days later (SASP). The protocol:
FIG. 4A-4H. xCT regulates CSC self-renewal and the intracellular redox balance. A and B, MTT assay of the cytotoxic effect exerted by scalar doses of SASP or by anti-xCT siRNAs on TUBO (A) and tumorspheres (B). (C) Sphere generation ability relative to untreated cells of tumorspheres incubated with SASP. (D) Sphere generation ability of tumorspheres incubated with siRNAs to xCT, scrambled siRNAs, or not at all shown as tumorsphere number/10^3 plated cells. (E) and (F) FACS analysis of xCT and CSC marker expression in spheres 24 hours after transfection with siRNAs to xCT or scrambled siRNAs. (E) histograms show xCT expression; open histograms show the background of negative control IgG stained cells from one representative experiment. (F) relative expression (%) of xCT^+, Sca-1^+, and CD44^high/CD24^low cells in tumorsphere-derived cells transfected with siRNAs to xCT (black bars) compared with cells transfected with scrambled siRNAs (dashed line). G and H, GSH (G) and ROS (H) levels in TUBO cells and their derived tumorspheres after either seeding in normal conditions, transfection with siRNAs to xCT, or scrambled siRNAs over three independent experiments. *, P<0.05; **, P<0.01;***, P<0.001, Student t test. […]
Dissociated tumorspheres were cultured with scalar doses of SASP or its diluent DMSO (Sigma-Aldrich), and the total number of tumorspheres/well was counted 5 days later.

For data set [4] the following is noted: physiological conditions; cited from earlier work.
The conditions of data set [5]: in vivo; cited from earlier work.
The target in data set [6] is T1, xCT (Homo sapiens, UniProt Q9UPY5).
T1 sequence (Q9UPY5 1-501): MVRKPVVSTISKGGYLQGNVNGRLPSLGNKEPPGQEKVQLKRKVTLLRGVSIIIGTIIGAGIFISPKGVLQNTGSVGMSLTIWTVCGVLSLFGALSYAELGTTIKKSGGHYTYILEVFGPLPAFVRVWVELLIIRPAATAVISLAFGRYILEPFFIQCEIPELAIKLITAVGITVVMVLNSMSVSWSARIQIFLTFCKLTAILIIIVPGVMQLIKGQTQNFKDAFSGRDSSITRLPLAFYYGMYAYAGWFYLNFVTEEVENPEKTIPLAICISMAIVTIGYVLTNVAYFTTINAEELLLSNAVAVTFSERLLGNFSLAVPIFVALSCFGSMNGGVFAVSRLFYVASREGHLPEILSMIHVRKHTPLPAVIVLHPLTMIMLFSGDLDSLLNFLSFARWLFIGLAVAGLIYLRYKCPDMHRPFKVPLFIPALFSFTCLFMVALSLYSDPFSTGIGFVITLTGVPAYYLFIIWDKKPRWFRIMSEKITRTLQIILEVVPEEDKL
T1 sequence (P08195 1-529 partner): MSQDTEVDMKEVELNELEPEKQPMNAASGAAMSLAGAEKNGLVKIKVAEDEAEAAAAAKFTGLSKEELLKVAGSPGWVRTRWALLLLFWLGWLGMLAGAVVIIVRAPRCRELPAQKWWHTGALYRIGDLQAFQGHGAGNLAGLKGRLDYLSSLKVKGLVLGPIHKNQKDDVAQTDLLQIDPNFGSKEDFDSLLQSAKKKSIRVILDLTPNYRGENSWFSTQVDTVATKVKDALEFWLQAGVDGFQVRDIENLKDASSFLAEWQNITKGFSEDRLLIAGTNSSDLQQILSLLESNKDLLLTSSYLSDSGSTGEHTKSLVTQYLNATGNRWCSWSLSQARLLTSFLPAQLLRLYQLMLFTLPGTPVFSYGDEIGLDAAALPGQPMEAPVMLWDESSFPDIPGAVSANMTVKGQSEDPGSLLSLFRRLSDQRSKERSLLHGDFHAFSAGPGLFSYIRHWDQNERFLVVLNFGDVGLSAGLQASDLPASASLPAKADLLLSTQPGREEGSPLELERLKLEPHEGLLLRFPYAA
The settings on record: animal models; cited from earlier work.

In data set [7] the test system is HCC-1806 derived tumorspheres. Kind of data set: FACS binding of immune sera from VLP immunized mice to tumorspheres. Type of data set: cell-based, human. The settings on record: sera (1:50) of mice immunized with VLPs 3 times at 2 week intervals; passage 2 HCC-1806 tumorspheres. The protocol: FIG. 1A-1B. xCT VLPs elicit antibodies that bind to tumorspheres. Immune sera (1:50) from xCT or control (MS2) VLP immunized mice were incubated with HCC-1806 derived tumorspheres. A FITC conjugated anti mouse IgG was used to detect sera antibodies bound to the cells. (A) FACS analysis of the percentage of tumorsphere cells that bound to the immune sera. As a positive control for xCT binding, we used a commercially available xCT polyclonal antibody. (B) Immunofluorescence analysis showing antibody binding to a tumorsphere from an xCT ECD 6 immunized mouse. Cell nuclei are stained with DAPI.
To determine if xCT VLP vaccination generated antibodies that could bind to breast cancer stem cells, sera from animals immunized with VLPs 3 times at 2 week intervals were incubated with passage 2 tumorspheres from the human cell line HCC-1806.
(In flow cytometry, cells or beads pass a laser one at a time.)

The subject of data set [8] is TUBO-derived tumorspheres. Kind of data set: Growth of s.c. tumors from TUBO-derived tumorspheres in vaccinated BALB/c mice. The note with it: treated at 2 mm mean diameter, repeated the week later.
Source text: TUBO-derived tumorspheres were s.c. implanted into BALB/c mice that were vaccinated when tumors reached 2 or 4 mm mean diameter to evaluate whether xCT immune-targeting hinders breast cancer growth (FIG. 6A-6D).
Female 6- to 8-week-old wild-type (Charles River Laboratories) and Ig μ-chain gene knocked out (BALB-μIgKO) BALB/c mice were maintained at the Molecular Biotechnology Center, University of Torin, and treated in accordance with the University Ethical Committee and European guidelines under Directive 2010/63. Vaccination, performed either before or after tumor challenge, consisted of two intramuscular electroporations at 2 weeks interval, of pVAX1 or pVAX1-xCT plasmids.
Primary s.c. tumors were induced by injecting 1×10^4 TUBO or 4T1 tumorsphere-derived cells.
Data set [9] deals with mouse tubo-derived tumorspheres. The data set can be described thus: Lung metastases in VLP immunized mice injected i.v. with tumorspheres. In kind it is in vivo. The settings on record: 5×10^4 tumorspheres i.v., lungs 20 days later, vs MS2 control VLPs. The protocol:
FIG. 2. […] Mice immunized with xCT or MS2 control VLPs were injected (i.v) with 5×10^4 mouse tubo-derived tumorspheres. 20 days later, animals were euthanized and lungs were removed, section and the number of metastatic foci were measured. The number of mice were MS2 (n=2), xCT ECD3 (n=5), xCT ECD5 (n=5) and xCT ECD6 (n=4). Metastatic lesions were counted from two lung sections per animal. Data presented is the average number of lesions per slide. Two-tailed student t test was used to determine significance. ** indicates a p-value <0.01.
Inhibition of xCT function by a […] vaccine inhibits the number of metastatic lesions in the lung by 40% in a well characterized breast cancer stem cell transplantation model.

As to `O=C(O)c1cc(/N=N/c2ccc(S(=O)(=O)Nc3ccccn3)cc2)ccc1O` [SASP, sulfasalazine], the IC50 in data set [1] (Mus musculus, TUBO cells, read-out: IC50, cell viability (MTT)) was determined as 126 ± 25.7 µM; in data set [2] it was 51.6 ± 3.5 µM. In addition, in data set [3], the tumorsphere generation entry is recorded as “impaired tumorsphere generation”. The stability and solubility entry in [4] was “labile and insoluble under physiological conditions”. Also, in [5], the bioavailability entry was “low bioavailability”. Besides, the metastatic foci entry in data set [6] is “significant decreases in metastatic foci”.
In the case of “xCT ECD3: MS2 VLP displaying extracellular domain 3 of human xCT in the AB loop of the coat protein (MQLIKGQTQNFKDAFSGRDSSITR; displayed on MS2 VLP coat protein AB loop; listed as Homo sapiens)”, the “antibody response: immune sera antibodies binding to tumorspheres by FACS” value in data set [7] is listed as “generated antibodies against xCT that were able to bind to human breast cancer cells as well as a commercially available xCT antibody”.
In the case of `COc1cccc2c1C(=O)c1c(O)c3c(c(O)c1C2=O)C[C@@](O)(C(=O)CO)C[C@@H]3O[C@H]1C[C@H](N)[C@H](O)[C@H](C)O1` [doxorubicin], the “sensitivity of TUBO cells compared with tumorspheres (MTT)” value in [1] (scalar doses) was “higher sensitivity”. Moreover, the “mice with tumor regression” value in data set [8] is given as 25%.
Take “xCT ECD6: MS2 VLP displaying extracellular domain 6 of human xCT in the AB loop of the coat protein (YSDPFS; displayed on MS2 VLP coat protein AB loop; listed as Homo sapiens)”: in data set [7], the “antibody response: immune sera antibodies binding to tumorspheres by FACS” value was “generated antibodies against xCT that were able to bind to human breast cancer cells as well as a commercially available xCT antibody”. Moreover, in [9], the “reduction of the number of metastases in the lung” value was around 60%.

What is called IC50 is the concentration that inhibits the measured activity by half.
